The source of these data is patent publication US6150385A, “1,3,4-thiadiazoles useful for the treatment of CMV infections” (Pharmacia & Upjohn Company, priority 1999, dated 2000).

Molecules are shown by their SMILES.

T1 sequence (P08546 whole entry): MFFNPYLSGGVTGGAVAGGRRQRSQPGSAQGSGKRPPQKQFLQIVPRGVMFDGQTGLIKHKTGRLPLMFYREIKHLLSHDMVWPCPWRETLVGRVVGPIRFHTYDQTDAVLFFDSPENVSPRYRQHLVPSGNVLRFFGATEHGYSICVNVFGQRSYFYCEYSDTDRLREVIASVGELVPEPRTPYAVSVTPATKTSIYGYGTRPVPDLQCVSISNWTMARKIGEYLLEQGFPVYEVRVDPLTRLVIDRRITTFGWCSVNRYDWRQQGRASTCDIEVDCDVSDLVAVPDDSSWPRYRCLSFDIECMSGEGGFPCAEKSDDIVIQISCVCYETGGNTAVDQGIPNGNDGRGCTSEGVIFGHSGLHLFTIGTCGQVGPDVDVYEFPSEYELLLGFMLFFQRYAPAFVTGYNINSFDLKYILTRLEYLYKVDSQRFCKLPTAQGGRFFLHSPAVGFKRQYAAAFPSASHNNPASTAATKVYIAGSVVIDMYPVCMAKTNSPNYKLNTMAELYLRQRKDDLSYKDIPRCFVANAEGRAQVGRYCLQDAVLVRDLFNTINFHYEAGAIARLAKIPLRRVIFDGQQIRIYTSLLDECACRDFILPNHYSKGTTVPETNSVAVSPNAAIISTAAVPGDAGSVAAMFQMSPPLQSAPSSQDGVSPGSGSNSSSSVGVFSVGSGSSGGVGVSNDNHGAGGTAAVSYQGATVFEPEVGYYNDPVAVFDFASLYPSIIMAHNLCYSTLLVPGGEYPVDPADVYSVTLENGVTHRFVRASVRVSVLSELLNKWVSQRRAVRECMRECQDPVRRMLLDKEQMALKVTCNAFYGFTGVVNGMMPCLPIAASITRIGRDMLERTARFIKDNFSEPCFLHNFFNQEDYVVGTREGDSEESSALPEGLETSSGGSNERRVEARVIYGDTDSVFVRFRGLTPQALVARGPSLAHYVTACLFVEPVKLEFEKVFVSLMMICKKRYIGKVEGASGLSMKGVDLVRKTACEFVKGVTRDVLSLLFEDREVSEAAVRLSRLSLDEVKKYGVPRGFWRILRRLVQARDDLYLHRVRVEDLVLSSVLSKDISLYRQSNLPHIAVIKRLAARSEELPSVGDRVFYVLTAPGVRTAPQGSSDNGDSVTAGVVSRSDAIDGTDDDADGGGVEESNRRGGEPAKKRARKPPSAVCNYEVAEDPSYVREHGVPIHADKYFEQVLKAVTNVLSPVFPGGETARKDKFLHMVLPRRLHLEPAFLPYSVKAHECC

This experiment addresses T1, HCMV polymerase (Human cytomegalovirus, UniProt P08546).
T1 construct: made in house; host or cells: SF-9 insect cells infected with recombinant baculovirus
The experiment can be described thus: HCMV polymerase assay (scintillation proximity assay). Format: biochemical. The note with it: percentage of inhibition at 25 μM concentration in CMV polymerase assay. In short, it runs like this: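 Baculovirus/SF-9-expressed HCMV polymerase in 5.4 mM HEPES pH 7.5, 11.7 mM KCl, 4.5 mM MgCl2, 0.36 mg/ml BSA, 90 nM 3H-dTTP, with or without 2 mM CHAPS. Started with 6 nM biotinylated poly(dA)-oligo(dT), 30 min at 25 or 37 °C, EDTA-stopped, read by streptavidin-SPA counting; % inhibition at 25 μM.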
A general note: In a scintillation proximity assay essentially only radioactivity close to the scintillant gives light.
As to `Cc1ccc(C(=O)Nc2nnc(NCCCNC3CCCCC3)s2)cc1` [compound 162, N-(5-{[3-(cyclohexylamino)propyl]amino}-1,3,4-thiadiazol-2-yl)-4-methylbenzamide], the inhibition at 25 µM was found to be 51.8%. On the same count and under the same terms, the result for `CCCCCCCC/C=C/CCCCCCCC(=O)Nc1nnc(NCCNc2ccccc2)s1` [compound 179, (E)-N-{5-[(2-anilinoethyl)amino]-1,3,4-thiadiazol-2-yl}-9-octadecenamide] reads 48.5%; that for `CCCCCCCC/C=C/CCCCCCCC(=O)Nc1nnc(NCCCCCCCCCCC)s1` [compound 51, (E)-N-[5-(undecylamino)-1,3,4-thiadiazol-2-yl]-9-octadecenamide], 79.5%. `O=C(Nc1nnc(NCCC(c2ccccc2)c2ccccc2)s1)c1ccc([N+](=O)[O-])o1` [compound 298, N-{5-[(3,3-diphenylpropyl)amino]-1,3,4-thiadiazol-2-yl}-5-nitro-2-furamide]: the inhibition at 25 µM was 35%. `NS(=O)(=O)c1ccc(CCNc2nnc(NC(=O)/C=C/c3ccccc3Cl)s2)cc1` [compound 125, (E)-N-(5-{[4-(aminosulfonyl)phenethyl]amino}-1,3,4-thiadizol-2-yl)-3-(2-chlorophenyl)-2-propenamide] registered an inhibition at 25 µM of 58.9%.

Take `O=C(Nc1nnc(NCC(c2ccccc2)c2ccccc2)s1)c1c(Cl)cccc1Cl` [compound 56, 2,6-dichloro-N-{5-[(2,2-diphenylethyl)amino]-1,3,4-thiadiazol-2-yl}benzamide]: testing at 25 µM gave an inhibition of 77.4%. `CCSCCNc1nnc(NC(=O)c2cc3ccccc3s2)s1` [compound 466, N-(5-{[2-(ethylsulfanyl)ethyl]amino}-1,3,4-thiadiazol-2-yl)-1-benzothiophene-2-carboxamide]: the inhibition at 25 µM was 20.1%. For `O=C(Nc1nnc(NCc2cccc3ccccc23)s1)c1ccc(S(=O)(=O)F)cc1` [compound 195, 4-[({5-[(1-naphthylmethyl)amino]-1,3,4-thiadiazol-2-yl}amino)carbonyl]benzenesulfonyl fluoride], the “% Inhib” value worked out at 46.7%. `NS(=O)(=O)c1ccc(CNc2nnc(NC(=O)/C=C/c3ccccc3Cl)s2)cc1` [compound 88, (E)-N-(5-{[4-(aminosulfonyl)benzyl]amino}-1,3,4-thiadiazol-2-yl)-3-(2-chlorophenyl)-2-propenamide] registered an inhibition at 25 µM of 66.5%.

`O=C(Nc1nnc(NCc2ccncc2)s1)c1ccc2c(c1)C(=O)OC2=O` [compound 54, 1,3-dioxo-N-{5-[(4-pyridinylmethyl)amino]-1,3,4-thiadiazol-2-yl}-1,3-dihydro-2-benzofuran-5-carboxamide] returned an inhibition at 25 µM of 77.7%. The same measure, in the same setting: as for `O=C(Nc1nnc(NCCc2cccs2)s1)c1ccc2c(c1)C(=O)OC2=O` [compound 9, 1,3-dioxo-N-(5-{[2-(2-thienyl)ethyl]amino}-1,3,4-thiadiazol-2-yl)-1,3-dihydro-2-benzofuran-5-carboxamide], the figure is 99.8%. The same measure, in the same setting: as for `CCOc1ccc2ccccc2c1C(=O)Nc1nnc(NCc2cccc3ccccc23)s1` [compound 136, 2-ethoxy-N-{5-[(1-naphthylmethyl)amino]-1,3,4-thiadiazol-2-yl}-1-naphthamide], the figure is 56.5%; as for `O=C(/C=C/c1ccccc1)Nc1nnc(NC2CCCCCC2)s1` [compound 274, (E)-N-[5-(cycloheptylamino)-1,3,4-thiadiazol-2-yl]-3-phenyl-2-propenamide], 38.1%. Still for that read-out and setting: the result for `CCOC(=O)N1CCC(Nc2nnc(NC(=O)/C=C/c3ccccc3Cl)s2)CC1` [compound 344] reads 31.1%; that for `O=C(/C=C/c1ccccc1)Nc1nnc(NCCc2c[nH]cn2)s1` [compound 215, (E)-N-(5-{[2-(1H-imidazol-4-yl)ethyl]amino}-1,3,4-thiadiazol-2-yl)-3-phenyl-2-propenamide], 44.1%.

Broadly, the inhibition is the drop in the measured response relative to a control, in per cent. A lower inhibition goes with a response near the control.
